According to PMC11187260, “Unraveling the interconversion pharmacokinetics and oral bioavailability of the major ginger constituents: [6]-gingerol, [6]-shogaol, and zingerone after single-dose administration in rats” (Frontiers in Pharmacology, 2024):
Where two headings read alike, the source gives them in different places.

Assays:
[1] = Pharmacokinetics and oral bioavailability after single oral administration (30 mg/kg), plasma LC-MS/MS; type: in vivo, Female Sprague Dawley rats; conditions: for bioavailability / AUC(0-inf) / AUC(0-t) / Tmax: plasma, 30 mg/kg; for AUC(0-t): read-out: AUC(0-t); for Tmax: median [IQR]
Procedure: (§1) This study is composed of two sections; the first section involves an investigation of the interconversion pharmacokinetics of the pure compounds, and the second focuses on tissue distribution. All rats were transferred to metabolic cages and fasted overnight for at least 10 h. The animals were then randomly divided into four groups (6 rats/group) to receive a single intravenous (i.v.) administration of either 6G, 6S, zingerone, or vehicle via the lateral tail vein at a dosage of 3 mg/kg. After a 7-week washout period, the rats received 30 mg/kg of the same test compounds through a single oral (p.o.) administration. Following each administration, blood samples (300 µL) were collected in heparinized tubes from the lateral tail vein (while rats were under anesthesia with isoflurane) at specified time points: 0.083, 0.25, 0.5, 1, 1.5, 2, 3, 4, 6, 8, and 24 h after administration. An additional 1 mL of blood sample was collected from each rat at pre-dose (0 h) and post-dose (24 h) for clinical laboratory testing and safety evaluation. All heparinized blood samples were initially centrifuged at 5,000 × g, 4 °C, for 10 min. Subsequently, the plasma was carefully transferred to a cryotube as an aliquot sample and then stored at −40 °C until analysis. Urine and feces were collected during the intervals of 0–24 h and 24–48 h post-dosing, and their weights and volumes were documented. All collected urine and feces samples were stored at −40 °C until analysis.
Plasma samples were processed through protein precipitation. In brief, 50 µL of plasma was mixed with 200 µL of methanol containing 50 ng/mL of IS (dihydrocapsaicin). The mixtures were vortexed and centrifuged at 14,000 × g at 4 °C for 10 min. The supernatant was filtered through a […] PVDF membrane (Chrome Tech, MN, USA) before analysis.
(§2) Investigation of glucuronide conjugations followed a previously published method with some modification ([Wang et al., 2017]; [Songvut et al., 2023]). A 50 μL aliquot of plasma, urine, or feces sample was incubated at 37 °C for a minimum of 30 min with 50 μL of β-glucuronidase (3,000 U/mL) in a sodium phosphate buffer (pH 6.8). For sample extraction, 150 μL of methanol containing 50 μg/L of IS was pipetted into the pre-incubated samples. Subsequently, the mixtures were vortexed for 10 min and then centrifuged at 14,000 × g at 4 °C for 10 min. The supernatants were filtered through a […] PVDF membrane (Chrome Tech, MN, United States) and then analyzed using the validated LC-MS/MS method.
Quantitative analysis was conducted using liquid chromatography-tandem mass spectrometry (LC-MS/MS) with a Nexera X2 LCMS-8060NX instrument (Shimadzu, Japan). The instrument included a CBM-40lite system controller, CTO-40C column oven, SIL-40C XR autosampler, LC-40D XR solvent pump unit, FCV-DGU-403 degasser, and 20AH2 switching valve. The LC-MS/MS system was operated with a binary pump and equipped with a triple quadrupole mass spectrometer.
Pharmacokinetic parameters were assessed using PK Solutions software (version 2.0) with non-compartmental analysis. The AUC was calculated using the Linear-Log Trapezoidal Method. The maximum plasma concentration (Cmax) and time to reach maximum plasma concentration (Tmax) were taken directly from the graph.
(§3) Plasma concentration-time profiles were plotted using GraphPad Prism 9.3.0 (GraphPad Software, USA). The absolute oral bioavailability was calculated as follows: F = (AUC p.o./dose p.o.)/(AUC i.v./dose i.v.). The percentage recovery of each administered compound was calculated as the total amount of the drug found in urine or feces divided by the administered dose. The tissue-to-plasma concentration ratios (K p) were calculated by dividing the concentration in the tissue by the corresponding plasma concentration at the respective sampling time point.

[2] = Tissue distribution after single oral administration (30 mg/kg); type: in vivo; conditions: 1–2 h after oral 30 mg/kg
Procedure: Tissue distribution analysis was carried out after a 7-week washout period following the completion of the pharmacokinetic study. The animals received a single oral administration of either 6G, 6S, zingerone, or vehicle at a dosage of 30 mg/kg. Euthanasia was performed using an overdose of isoflurane (>10%) in an induction chamber, either one or 2 h after oral gavage (3 rats/timepoint), and death was confirmed by exsanguination. Subsequently, the stomach, small intestine, liver, large intestine, kidneys, heart, lung, hippocampus, cortex, spleen, ovaries, and spinal cord were collected. The dissected organs were thoroughly cleaned with a cold normal saline solution and the connective tissue was removed. The organs were then precisely weighed before being stored at −40 °C. All processes during tissue collection were performed on ice.
(§4) Urine samples were centrifuged, and 50 µL of urine was extracted with 200 µL of 100% methanol. The mixture was vortexed for 10 min and subsequently centrifuged at 14,000 × g at 4 °C for 10 min. Feces and organs were weighed and homogenized with methanol (50:50% w/v). The supernatants of the extracted urine, feces, and organs were also filtered through a […] PVDF membrane (Chrome Tech, MN, USA) before analysis.
as §3

[3] = Safety evaluation: physical appearance and blood chemistry after single i.v. or p.o. dose; type: in vivo, Female Sprague Dawley rats; conditions: for ALP / ALT / AST / BUN / Creatinine: post-dose (24 h), mean ± SD n=6; for Physical appearance: post-dose
Procedure: as §1
Plasma samples were collected at baseline (T0) and T24 h for the determination of blood chemistry, including levels of blood urea nitrogen (BUN), creatinine, aspartate transaminase (AST), alanine transaminase (ALT), and alkaline phosphatase (ALP). The analyses were conducted by the Exclusive Veterinary Professional Laboratory Center (Bangkok, Thailand). The creatinine level was determined using an enzymatic oxidase assay, while AST and ALT levels were determined using the procedure of the International Federation of Clinical Chemistry (IFCC) without pyridoxal phosphate activation.

[4] = Percent recovery in urine and feces after intravenous or oral administration; type: in vivo, Female Sprague Dawley rats; conditions: for dose excreted: female, Sprague Dawley, rat, % of administered dose
Procedure: as §1, §4, §2, §3

[5] = female, Sprague-Dawley, rat, po, plasma analyte after [6]-gingerol p.o. 30 mg/kg, mean ± SD n=6
[6] = female, Sprague-Dawley, rat, po, plasma analyte after zingerone p.o. 30 mg/kg, mean ± SD n=6

COc1cc(CCC(C)=O)ccc1O [zingerone, 4-(4-hydroxy-3-methoxyphenyl)-2-butanone]
plasma detection of zingerone after 6S administration ([1]; after 6S administration (route not given)): not detected
bioavailability ([1]; female, Sprague-Dawley, rat, po, p.o. 30 mg/kg vs i.v. 3 mg/kg of the pure compound, mean ± SD n=6, read-out: %Oral bioavailability): 0.75 ± 0.52%
bioavailability ([1]; female, Sprague-Dawley, rat, po, p.o. 30 mg/kg vs i.v. 3 mg/kg of the pure compound, range among rats, read-out: %Oral bioavailability (range)): 0.32 to 1.6%
bioavailability ([1]; female, Sprague-Dawley, rat, po, p.o. 30 mg/kg vs i.v. 3 mg/kg, pure compounds, read-out: absolute oral bioavailability (upper bound)): < 2%
AUC(0-inf) [1, 5]: 28 ± 7.4 ng·h/mL
AUC(0-t) [1, 5]: 28 ± 7.4 ng·h/mL
Tmax ([1]; female, Sprague-Dawley, rat, po, plasma analyte after [6]-gingerol p.o. 30 mg/kg): 15 min
AUC(0-inf) [1, 6]: 950 ± 373 ng·h/mL
AUC(0-t) [1, 6]: 944 ± 348 ng·h/mL
Tmax ([1]; female, Sprague-Dawley, rat, po, plasma analyte after zingerone p.o. 30 mg/kg): 4.8 min
Cmax [1, 6]: 1870 ± 604 ng/mL
presence of parent compound in plasma ([1]; following oral administration): up to 4 h
time to detectable plasma levels ([1]; oral administration of pure compound): ≤ 5 min
time to reach peak plasma concentration (Cmax) ([1]; parent compound after oral administration 30 mg/kg): 5 to 45 min
distribution to brain regions (hippocampus and cortex) [2]: higher concentrations
tissue-to-plasma ratios (rank among compounds) [2]: highest
ALP ([3]; i.v. 3 mg/kg): 48.50 ± 14.00 U/L
ALT ([3]; i.v. 3 mg/kg): 28.50 ± 5.82 U/L
AST ([3]; i.v. 3 mg/kg): 64.17 ± 11.05 U/L
BUN ([3]; i.v. 3 mg/kg): 14.17 ± 1.33 mg/dL
Creatinine ([3]; i.v. 3 mg/kg): 0.70 ± 0.03 mg/dL
ALP ([3]; p.o. 30 mg/kg): 35.83 ± 8.38 U/L
ALT ([3]; p.o. 30 mg/kg): 19.33 ± 2.50 U/L
AST ([3]; p.o. 30 mg/kg): 53.83 ± 6.88 U/L
BUN ([3]; p.o. 30 mg/kg): 9.83 ± 1.47 mg/dL
Creatinine ([3]; p.o. 30 mg/kg): 0.75 ± 0.02 mg/dL
Physical appearance ([3]; i.v. 3 mg/kg): Normal
Physical appearance ([3]; p.o. 30 mg/kg): Normal
Tolerability ([3]; single i.v. 3 mg/kg or p.o. 30 mg/kg): exhibited tolerance
parent compound recovered in urine ([4]; during 24–48 h): less than 1%
dose excreted ([4]; feces, iv, 3 mg/kg, intravenous administration 3 mg/kg of parent compound, read-out: % Recovery excretion, feces T 0–24 h): 0.049 ± 0.027%
dose excreted ([4]; feces, iv, 3 mg/kg, intravenous administration 3 mg/kg of parent compound, read-out: % Recovery excretion, feces T 24–48 h): 0.002 ± 0.001%
dose excreted ([4]; feces, po, 30 mg/kg, oral administration 30 mg/kg of parent compound, read-out: % Recovery excretion, feces T 0–24 h): 0.004 ± 0.003%
dose excreted ([4]; feces, po, 30 mg/kg, oral administration 30 mg/kg of parent compound, read-out: % Recovery excretion, feces T 24–48 h): 0.057 ± 0.017%
dose excreted ([4]; urine, iv, 3 mg/kg, intravenous administration 3 mg/kg of parent compound, read-out: % Recovery excretion, urine T 0–24 h): 0.184 ± 0.286%
dose excreted ([4]; urine, iv, 3 mg/kg, intravenous administration 3 mg/kg of parent compound, read-out: % Recovery excretion, urine T 24–48 h): < 0.001%
dose excreted ([4]; urine, po, 30 mg/kg, oral administration 30 mg/kg of parent compound, read-out: % Recovery excretion, urine T 0–24 h): 0.049 ± 0.032%
dose excreted ([4]; urine, po, 30 mg/kg, oral administration 30 mg/kg of parent compound, read-out: % Recovery excretion, urine T 24–48 h): < 0.001%
unchanged form in fecal excretion ([4]; within 48 h after intravenous or oral administration): < 0.1%
